Data reported in patent US20080071190A1, “Timing of Ovulation Based on Vaginal Ph” (priority 2004, published 2008).

Columns and labels:
Human Endocervical Cells = experiment: Determinations of extracellular pH (pHo) in luminal and contra-luminal solutions of Human Endocervical Cells cultured on filters; type: cell-based; conditions: steroid-free medium and treatment with 10 nM estradiol, no effect
Procedure: Primary cultures of Human Endocervical Cells were obtained through Clonetics (Walkersville, Md.). Cells chosen for experiments were those obtained from tissues of two women reported as HPV negative, and the cultured Endocervical Cells were tested for mycoplasma. Primary Endocervical cultures were grown and subcultured into second passage using Clonetics proprietary Endocervical Medium (supplied with the cells), and thereafter maintained in hECE culture medium. Cells were characterized as epithelial cells based on typical morphology of a monolayered epithelium; the expression of involucrin; lack of expression of vimentin; and expression of tight junctions (not shown). […] The cells were defined as phenotypically endocervical (in contrast to ectocervical/vaginal) based on expression of apical villi, the abundant expression of cytokeratins 18/19, and minimal expression of cytokeratins 4/5 and 13. Both hECE cells and the Human Endocervical Cells (not shown) expressed functional estrogen receptors. […]
Plates containing the filters were placed in a tissue culture incubator (37° C.), and pHo changes in the luminal and contra-luminal solutions were determined using AMANI-1000 microcombination pH electrodes 306 (Harvard Apparatus, Holliston, Mass., obtained through Genomics Solutions, Ann Harbor, Mich.). […]

[1] = system: hECE cells (Human Ectocervical-Vaginal Epithelial Cells); experiment: Determinations of extracellular pH (pHo) in luminal and contra-luminal solutions of hECE cells cultured on filters; type: cell-based
Procedure: Referring to FIG. 4A, hECE cells or Human Endocervical Cells were plated on Anocell filters (Anocel™-10, Oxon, UK, obtained through Sigma Chemicals, St. Louis, Mo.), which are ceramic-base filters, pore size of 0.02 μm width, 50 μm depth, and surface area of 0.6 cm^2. Filters 300 and 302 were coated with 4 μg/cm^2 collagen type IV and incubated at 37° C. overnight. The remaining collagen solution was aspirated and the filter was dried at 37° C. Before plating, filters 300 were rinsed 3 times with Hanks' Balanced Salt Solution. Cells were plated either on the upper surface 302 of one filter 300 (for determinations of luminal pHo) or on the bottom surface 304 of the other filter 300 (for determinations of the contra-luminal pHo) at 3·10^5 cells/cm^2. By plating at this relatively high density the cultures became confluent within 12 hours after plating.
Plates containing the filters were placed in a tissue culture incubator (37° C.), and pHo changes in the luminal and contra-luminal solutions were determined using AMANI-1000 microcombination pH electrodes 306 (Harvard Apparatus, Holliston, Mass., obtained through Genomics Solutions, Ann Harbor, Mich.). The AMANI-1000 pH sensor (stored in pH 7.0) is based on metal-metal oxide pH measurements and the pH sensitive layer is immobilized on plastic. The reference electrode employs an Ag/AgCl in 3.4 M KCl reference electrode, and the reference electrode junction is leak-free ensuring no leaks of KCl out of the reference electrode. The design of the pH electrodes 306 enabled their use for the purpose of the present experiments: tip diameter of 1 mm, depth of immersion 1 mm, and response time of less than 5 sec.
Electrodes 306 attached to a stand were held stable with the tip immersed in the solution within the upper compartment of the filter to a depth of about 2 mm avoiding direct contact between the electrode tip and the cultured cells. The electrodes were connected directly to a pH meter 310 (e.g., Accumet pH meter 910) (Fisher Scientific, Suwanee Ga.). After stabilization, the luminal and contraluminal solutions were gently aspirated using glass pipette, and replaced with fresh warmed (37° C.) Basic Salt Solution containing (in mM) NaCl (140), KCl (5), MgCl2 (1), CaCl2 (1), glucose (10), and 0.1% bovine serum albumin, pH 7.4. The volumes in the luminal and contraluminal compartments were 150 μl and 500 μl, respectively. Determinations of changes in pHo were made at time 0, and at 5 min intervals thereafter for up to 30 min.
To remove intracellular estrogens cells were grown in steroid-free medium as described. This procedure involved shifting cells on filters for three days prior to pHo assays to a medium composed of phenol-red-deficient (DMEM)/Ham's F12 or (Sigma Chemicals, St. Louis, Mo.) containing 8% heat inactivated fetal bovine serum that was previously treated with charcoal to remove steroids. Preparation of charcoal-treated serum was described; briefly, dextran-coated charcoal (Sigma Chemicals, St. Louis, Mo.) was dissolved at 8% in 0.15 M NaCl, autoclaved, mixed by stirring, spun and the pellet was resuspended as 1 gm/1.25 ml in H2O. Fetal bovine serum (Hyclone, Logan, Utah) was mixed with the activated charcoal-dextran at 20:1 (Vol:Vol) and incubated for 45 min at 55° C. At the completion of incubation the mixture was spun twice at 800 g for 20 min and the supernatant (serum) was decanted and collected. For experiments, cells were shifted to steroid-free medium for 3 days; alternatively, cells were shifted to the steroid-free medium for 24 hrs and treated with 17β-estradiol for two additional days.

hECE cells = experiment: Cell-vitality staining (MTT assay); type: cell-based, human; conditions: Steroid-Free Medium + substance, means ±SD, 3 to 4 repeats
Procedure: Cell-vitality staining was done using the 3-[4,5-dimethylthiazol-2-yl]-2,5-diphenyl tetrazolium bromide (MTT) assay. MTT serves as a substrate for mitochondrial dehydrogenases, and only viable functional mitochondria are capable of cleaving MTT to generate the colored product formazan. MTT solution was prepared by dissolving MTT at a concentration of 5 mg/ml in phosphate-buffered saline (PBS) composed of (mM) NaCl (137), KCl (2.68), Na2HPO4 (10), KH2PO4 (1.76), pH 7.4, and filtering the solution through Millipore filter. Following treatments/assays, cells on filters were washed with fresh and warm (37° C.) PBS and incubated for 60 min at 37° C. in MTT solution. At the completion of incubation, cells were washed with PBS, and solubilized in isopropanol containing 0.1 M HCl plus 1% Triton X-100. Lysates were mixed by pipetting to dissolve the reduced MTT crystals (during which time the colorless solution turned purple) and were spinned at 10,000 g for 5 min. The solubilized formazan was measured by determining absorption at 570 nm. Background absorbance at 690 nm was subtracted for each sample, and values were normalized to OD570 (optic density) of control unperturbed cells.

EC50 ([1]; Homo sapiens, Epithelial cell, hECE cells grown in steroid-free medium, dose response FIG. 8B, read-out: EC50 of decrease in luminal pHo): ~0.5 nM | hECE cell vitality (MTT staining normalized to OD570 of control unperturbed cells), Baseline (hECE cells; Baseline): 96 ± 3% | hECE cell vitality (MTT staining normalized to OD570 of control unperturbed cells), 30 min pHo (hECE cells; after 30 min pHo measurement): 94 ± 4%
Compound: C[C@]12CC[C@@H]3c4ccc(O)cc4CC[C@H]3[C@@H]1CC[C@@H]2O [17β-estradiol]
contra-luminal pHo or luminal pHo (Human Endocervical Cells): around 7.25 | luminal pHo ([1]; hECE cells in steroid-free medium treated with 10 nM 17β-estradiol for two days, 30 min, steroid-free medium alone 7.11±0.02): 7.03±0.02 | luminal pHo ([1]; hECE cells in steroid-free medium, 0.1 nM 17β-estradiol, decreased from 7.26±0.03): 7.13±0.03 | effect on luminal pHo (dose response) ([1]; hECE cells in steroid-free medium, 1 nM): reached near saturation | effect on luminal pHo (dose response) ([1]; hECE cells in steroid-free medium, 100 nM): no additional effect | contra-luminal pHo ([1]; hECE cells, steroid-free medium and treatment with 10 nM estradiol, no effect): around 7.25
